Measured values published in US20100151062A1, “Determining nutrients for animals through gene expression” (priority 2008, published 2010).

System: cartilage cells of individual affected unhealthy dogs
Experiment: In vitro culture of cartilage cells of affected dogs with curcumin or andrographolide, microarray
Assay type: cell-based, dog
Details: mean; for Fold change of gene expression, ACTB / Fold change of gene expression, ACTR3 / Fold change of gene expression, ADK / Fold change of gene expression, ANKRD10 / Fold change of gene expression, CAV1 / Fold change of gene expression, CDH11 / Fold change of gene expression, COL3A1 / Fold change of gene expression, COX1 / Fold change of gene expression, COX2 / Fold change of gene expression, IGFBP7 / Fold change of gene expression, IL2 / Fold change of gene expression, MMP2 / Fold change of gene expression, NOS2 / Fold change of gene expression, PTGS-2 / Fold change of gene expression, SPARC / Fold change of gene expression, STMN1 / Fold change of gene expression, TIMP1 / Fold change of gene expression, TIMP2 / Fold change of gene expression, TNF-a / Fold change of gene expression, TUBA / Fold change of gene expression, TUBB: 60 mg/l vs 0, 6 hours, cartilage cells of affected dogs; for Fold change of gene expression, ACTB / Net effect of the NBC on fold change, ACTB: gene ACTB; for Net effect of the NBC on fold change, ACTB / Net effect of the NBC on fold change, ACTR3 / Net effect of the NBC on fold change, ADK / Net effect of the NBC on fold change, ANKRD10 / Net effect of the NBC on fold change, CAV1 / Net effect of the NBC on fold change, CDH11 / Net effect of the NBC on fold change, COL3A1 / Net effect of the NBC on fold change, COX1 / Net effect of the NBC on fold change, COX2 / Net effect of the NBC on fold change, IGFBP7 / Net effect of the NBC on fold change, IL2 / Net effect of the NBC on fold change, MMP2 / Net effect of the NBC on fold change, NOS2 / Net effect of the NBC on fold change, PTGS-2 / Net effect of the NBC on fold change, SPARC / Net effect of the NBC on fold change, STMN1 / Net effect of the NBC on fold change, TIMP1 / Net effect of the NBC on fold change, TIMP2 / Net effect of the NBC on fold change, TNF-a / Net effect of the NBC on fold change, TUBA / Net effect of the NBC on fold change, TUBB: 60 mg/l, 6 hours; for Fold change of gene expression, ACTR3 / Net effect of the NBC on fold change, ACTR3: gene ACTR3; for Fold change of gene expression, ADK / Net effect of the NBC on fold change, ADK: gene ADK; for Fold change of gene expression, ANKRD10 / Net effect of the NBC on fold change, ANKRD10: gene ANKRD10; for Fold change of gene expression, CAV1 / Net effect of the NBC on fold change, CAV1: gene CAV1; for Fold change of gene expression, CDH11 / Net effect of the NBC on fold change, CDH11: gene CDH11; for Fold change of gene expression, COL3A1 / Net effect of the NBC on fold change, COL3A1: gene COL3A1; for Fold change of gene expression, COX1 / Net effect of the NBC on fold change, COX1: gene COX1; for Fold change of gene expression, COX2 / Net effect of the NBC on fold change, COX2: gene COX2; for Fold change of gene expression, IGFBP7 / Net effect of the NBC on fold change, IGFBP7: gene IGFBP7; for Fold change of gene expression, IL2 / Net effect of the NBC on fold change, IL2: gene IL2; for Fold change of gene expression, MMP2 / Net effect of the NBC on fold change, MMP2: gene MMP2; for Fold change of gene expression, NOS2 / Net effect of the NBC on fold change, NOS2: gene NOS2; for Fold change of gene expression, PTGS-2 / Net effect of the NBC on fold change, PTGS-2: gene PTGS-2; for Fold change of gene expression, SPARC / Net effect of the NBC on fold change, SPARC: gene SPARC; for Fold change of gene expression, STMN1 / Net effect of the NBC on fold change, STMN1: gene STMN1; for Fold change of gene expression, TIMP1 / Net effect of the NBC on fold change, TIMP1: gene TIMP1; for Fold change of gene expression, TIMP2 / Net effect of the NBC on fold change, TIMP2: gene TIMP2; for Fold change of gene expression, TNF-a / Net effect of the NBC on fold change, TNF-a: gene TNF-a; for Fold change of gene expression, TUBA / Net effect of the NBC on fold change, TUBA: gene TUBA; for Fold change of gene expression, TUBB / Net effect of the NBC on fold change, TUBB: gene TUBB
Experimental: Total RNA of cells was extracted using phenol/guanidine HCl reagents (Trizol, Invitrogen). RNA quality integrity was analysed using the Agilent 2100 Bioanalyser (Agilent Technologies) of the sample. The samples determined to have no, or minimal, loss of integrity and thus were considered suitable for use in experiments. mRNA was amplified for each sample, starting with 500 ng total RNA using a commercially available kit (Ambion T7 MEGAscript high yield transcription kit, Ambion). The mRNA was quantified using a spectrophotometer. mRNA was directly reverse transcribed to cDNA from 25 μg of total RNA using the Superscript indirect cDNA labeling Core kit (Invitrogen, Milan, Italy).
Two micrograms of cDNA were labelled with Cyanine-3dCTP (Cy3) or Cyanine-5dCTP (Cy5) fluorochromes using the cDNA labeling purification module kit (Invitrogen, Milan, Italy). Samples were hybridised to a canine specific, whole genome 44k spot 60mer oligonucleotide (Agilent Technologies). The labelled cDNA was appropriately coupled and used for competitive hybridization on the same microarray at 42° C. for 16 h. Fluorescence incorporation was determined using a spectrophotometer. The relative intensity of labelled cDNA in was acquired with ScanArray LITE scanner (PerkinElmer Life Sciences, Inc).
Expression data were then exported into Excel 2007 and processed with SAM software; comparison between groups was achieved using paired student's t tests. […] Correction for multiple hypothesis testing was performed using the false discovery rate (FDR).
Searching within the nutrient data set for biologically active nutrients with anti-arthritic and anti-inflammatory properties identified curcumin and androgropholide as the appropriated compositions. The cartilage cells of individual affected unhealthy dogs were cultured in vitro with 0, or 60 mg/l of curcumin or androgropholide for 6 hours. At the end of the incubation, these cartilage cells from individual affected dogs were washed and used for RNA extraction. For the microarray analysis, co-hybridisation of the RNA from 0 and 60 mg/l was conducted, using the material and the methods described previously.

## C=C1CC[C@@H]2[C@](C)(CO)[C@H](O)CC[C@@]2(C)[C@@H]1C/C=C1/C(=O)OC[C@H]1O [Androgrpholide]
  Fold change of gene expression, ACTB: −1.0
  Net effect of the NBC on fold change, ACTB: 2.8
  Fold change of gene expression, ACTR3: 1.0
  Net effect of the NBC on fold change, ACTR3: 1.3
  Fold change of gene expression, ADK: 0.0
  Net effect of the NBC on fold change, ADK: 3.6
  Fold change of gene expression, ANKRD10: 0.0
  Net effect of the NBC on fold change, ANKRD10: 5.2
  Fold change of gene expression, CAV1: 0.0
  Net effect of the NBC on fold change, CAV1: 4.8
  Fold change of gene expression, CDH11: −1.0
  Net effect of the NBC on fold change, CDH11: 5.9
  Fold change of gene expression, COL3A1: −2.0
  Net effect of the NBC on fold change, COL3A1: 7.5
  Fold change of gene expression, COX1: 0.0
  Net effect of the NBC on fold change, COX1: 0.8
  Fold change of gene expression, COX2: 0.0
  Net effect of the NBC on fold change, COX2: 23.0
  Fold change of gene expression, IGFBP7: −2.0
  Net effect of the NBC on fold change, IGFBP7: 1.7
  Fold change of gene expression, IL2: −6.0
  Net effect of the NBC on fold change, IL2: −3.0
  Fold change of gene expression, MMP2: −5.0
  Net effect of the NBC on fold change, MMP2: 5.0
  Fold change of gene expression, NOS2: −6.0
  Net effect of the NBC on fold change, NOS2: −5.8
  Fold change of gene expression, PTGS-2: −5.0
  Net effect of the NBC on fold change, PTGS-2: −3.8
  Fold change of gene expression, SPARC: 0.0
  Net effect of the NBC on fold change, SPARC: 6.3
  Fold change of gene expression, STMN1: 0.0
  Net effect of the NBC on fold change, STMN1: 6.2
  Fold change of gene expression, TIMP1: 0.0
  Net effect of the NBC on fold change, TIMP1: 6.2
  Fold change of gene expression, TIMP2: 0.0
  Net effect of the NBC on fold change, TIMP2: 2.0
  Fold change of gene expression, TNF-a: −8.0
  Net effect of the NBC on fold change, TNF-a: 2.0
  Fold change of gene expression, TUBA: 0.0
  Net effect of the NBC on fold change, TUBA: 4.7
  Fold change of gene expression, TUBB: 0.0
  Net effect of the NBC on fold change, TUBB: 4.8

## COc1cc(/C=C/C(=O)CC(=O)/C=C/c2ccc(O)c(OC)c2)ccc1O [curcumin]
  Fold change of gene expression, ACTB: −5.0
  Net effect of the NBC on fold change, ACTB: −1.2
  Fold change of gene expression, ACTR3: −1.0
  Net effect of the NBC on fold change, ACTR3: −4.0
  Fold change of gene expression, ADK: −4.3
  Net effect of the NBC on fold change, ADK: −1.4
  Fold change of gene expression, ANKRD10: −7.0
  Net effect of the NBC on fold change, ANKRD10: −1.8
  Fold change of gene expression, CAV1: −3.0
  Net effect of the NBC on fold change, CAV1: 1.8
  Fold change of gene expression, CDH11: −6.0
  Net effect of the NBC on fold change, CDH11: 0.9
  Fold change of gene expression, COL3A1: −6.0
  Net effect of the NBC on fold change, COL3A1: 3.5
  Fold change of gene expression, COX1: −1.0
  Net effect of the NBC on fold change, COX1: −0.2
  Fold change of gene expression, COX2: −15.0
  Net effect of the NBC on fold change, COX2: 8.0
  Fold change of gene expression, IGFBP7: −1.5
  Net effect of the NBC on fold change, IGFBP7: 2.2
  Fold change of gene expression, IL2: −4.0
  Net effect of the NBC on fold change, IL2: −1.0
  Fold change of gene expression, MMP2: −6.5
  Net effect of the NBC on fold change, MMP2: 3.5
  Fold change of gene expression, NOS2: −0.5
  Net effect of the NBC on fold change, NOS2: −0.3
  Fold change of gene expression, PTGS-2: −3.0
  Net effect of the NBC on fold change, PTGS-2: −1.8
  Fold change of gene expression, SPARC: −4.0
  Net effect of the NBC on fold change, SPARC: 2.3
  Fold change of gene expression, STMN1: −5.0
  Net effect of the NBC on fold change, STMN1: 1.2
  Fold change of gene expression, TIMP1: −5.0
  Net effect of the NBC on fold change, TIMP1: 1.2
  Fold change of gene expression, TIMP2: −2.0
  Net effect of the NBC on fold change, TIMP2: 0.0
  Fold change of gene expression, TNF-a: −14.5
  Net effect of the NBC on fold change, TNF-a: −4.5
  Fold change of gene expression, TUBA: −2.0
  Net effect of the NBC on fold change, TUBA: 2.7
  Fold change of gene expression, TUBB: −5.0
  Net effect of the NBC on fold change, TUBB: −0.2
